Our source for the Kd and Km values is article PMC2386126, “The Mycobacterium tuberculosis Rv2540c DNA sequence encodes a bifunctional chorismate synthase” (BMC Biochemistry, 2008).

In series [1] the target is T1, MtCS (chorismate synthase, aroF, Rv2540c) (Mycobacterium tuberculosis, UniProt P9WPY1).
T1 construct: gene aroC
As to the kind of experiment: biochemical. It counts as binding. The note with it: read-out: dissociation constant.

Series [2] relates to NC(=O)C1=CN([C@@H]2O[C@H](COP(=O)(O)OP(=O)(O)OC[C@H]3O[C@@H](n4cnc5c(N)ncnc54)[C@H](O)[C@@H]3O)[C@@H](O)[C@H]2O)C=CC1. As to the kind of experiment: purified protein. The note with it: apparent, holoenzyme preincubated with 40 μM FMNox, no EPSP, 50 mM Tris-HCl pH 7.8, 25°C.

T1 sequence (P9WPY1 whole entry, looked up): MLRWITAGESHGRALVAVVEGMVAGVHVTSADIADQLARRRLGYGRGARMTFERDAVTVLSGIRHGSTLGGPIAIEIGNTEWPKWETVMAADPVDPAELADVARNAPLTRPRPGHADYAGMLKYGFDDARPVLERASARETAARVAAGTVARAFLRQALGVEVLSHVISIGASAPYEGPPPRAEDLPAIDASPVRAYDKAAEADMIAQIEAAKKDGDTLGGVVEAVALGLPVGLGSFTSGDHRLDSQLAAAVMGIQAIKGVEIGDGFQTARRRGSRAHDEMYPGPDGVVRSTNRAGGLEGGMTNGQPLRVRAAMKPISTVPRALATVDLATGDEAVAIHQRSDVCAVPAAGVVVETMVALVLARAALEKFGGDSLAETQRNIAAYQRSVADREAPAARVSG

`NC(=O)C1=CN([C@@H]2O[C@H](COP(=O)(O)OP(=O)(O)OC[C@H]3O[C@@H](n4cnc5c(N)ncnc54)[C@H](O)[C@@H]3O)[C@@H](O)[C@H]2O)C=CC1` [NADH]: the Kd in series [1] came to 156 ± 12 µM.
For the compound “MtCS (chorismate synthase, aroF, Rv2540c) (Mycobacterium tuberculosis H37Rv)”, in series [2], the Michaelis constant (Km) (commonly the concentration of substrate that gives half-maximal velocity) amounted to 36 ± 4 µM.
